Laboratory results as given in patent US9284283B2, “Macrocyclic compounds for modulating IL-17” (ENSEMBLE THERAPEUTICS CORPORATION, priority 2012, dated 2016).

Columns and labels:
IL17A = target: T1, IL17A (Homo sapiens, UniProt Q16552); experiment: Surface Plasmon Resonance (SPR) analysis of compound interactions with IL17A; conditions: SPR binding to IL17A
T1 sequence (Q16552 24-155): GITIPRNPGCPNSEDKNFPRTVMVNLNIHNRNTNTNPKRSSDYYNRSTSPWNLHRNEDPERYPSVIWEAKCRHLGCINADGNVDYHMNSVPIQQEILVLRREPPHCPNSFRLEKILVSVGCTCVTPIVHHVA
Protocol: SPR analysis was carried out with a GE Healthcare (Piscataway, N.J.) Biacore X100 system. Typically, the chip (NTA Biacore Biosensor chip; GE Healthcare BR-1000-34) was first conditioned by injection of 0.35 M EDTA, which also served to remove any immobilized proteins from previous runs. Before immobilization of the recombinant 6-His-tagged IL17, the chip was washed with 0.5 mM nickel chloride in NTA buffer (10 mM HEPES buffer, 0.15 M sodium chloride, 10 μM ethylene diamine tetraacetic acid, 0.005% v/v surfactant P20 (GE Healthcare BR-1000-54)) to form a nickel chelate on the chip. IL17 protein was immobilized onto a NTA chip through its 6-His tag. IL17A was typically injected at 0.25 μM for 60-120 seconds, followed by a stabilization step washing with NTA+0.5% DMSO for 120 seconds or longer.
Five 2-fold or 3-fold serial dilutions of test compound were injected serially onto the chip. All steps were conducted using NTA buffer containing 0.5% v/v dimethylsulfoxide (DMSO). Compounds were diluted from stock solutions of 10 mM concentration in 100% DMSO with NTA buffer to obtain 50 μM solutions in NTA+0.5% DMSO. Subsequent 2× or 3× dilutions were made in NTA+0.5% DMSO. Compound was generally injected for 180 seconds followed by washing the chip in buffer alone for 120 seconds. The rate of refractive index change (RU units/time) and the maximum extend of RU change was measured during the “on” phase of analyte injection, followed by measuring the rate during the “off” phase.
Kinetic parameter fits were conducted using the Biacore SPR Evaluation Program (GE Healthcare) for 1:1 molecular binding fits, after subtracting the baseline average of 2 or more runs in which no analyte was injected. This program then reports the best fit average for the “on” rate (Ka), the “off” rate (Kd) and the dissociation constant (KD) (Chaiken, I et al., Anal Biochem 201, 197-210 (1992)). A separate program in the Biacore SPR Evaluation Program then calculates the best fit for Kd based upon the extent of binding alone (RU units bound) at each concentration of analyte and reports the best fit Kd by best fit to a Lineweaver-Burke plot. Typically, the Kd value calculated through both means agreed within a factor of three.
The presence and activity of IL17 on the NTA chip was routinely confirmed three ways: • 1) An increase in response units (RU) upon immobilization confirms that the IL17 was immobilized on the chip; • 2) Anti-IL17 was also injected on the chip to confirm the presence of IL17; and • 3) IL17R was injected onto the chip to confirm that the immobilized IL17 retained its binding activity for its receptor. Negative controls to access specificity for compound binding were conducted by immobilizing unrelated, but his-tagged, proteins (such as cyclophilin D) and conducting the same analysis as done with IL17A.

[1] = target: T2, recombinant human IL17a (binding to its receptor IL17R) (Homo sapiens, UniProt Q16552); experiment: IL-17 competition ELISA I (IL17a coated, IL17R/Fc binding)
T2 construct: purchased R&D Systems 317-ILB (IL17a); 177-IR (IL17R/Fc)
T2 sequence (Q16552 20-155 limits assumed): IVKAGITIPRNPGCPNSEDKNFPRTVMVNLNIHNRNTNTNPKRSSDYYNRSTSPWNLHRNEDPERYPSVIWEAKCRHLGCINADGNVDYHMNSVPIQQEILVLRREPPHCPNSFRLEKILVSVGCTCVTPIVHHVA
Outline: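 Plates coated with 20 nM recombinant human IL17a received compound dilutions and 12 nM IL17R/Fc (final) for 30 min at room temperature. Bound receptor was detected with HRP anti-human Fc and TMB, read at 450 nm. IC50 came from a 4-parameter logistic fit between no-competitor and blank controls.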

[2] = target: T3, biotinylated human IL-17 (binding to IL17R/Fc) (Homo sapiens, UniProt Q16552); experiment: IL-17 competition ELISA II (captured IL17R/Fc, biotinylated IL-17)
T3 construct: purchased R&D Systems 317-ILB (IL-17, biotinylated); 177-IR (IL17R/Fc)
T3 sequence (Q16552 20-155 limits assumed): T2 sequence (Q16552 20-155 limits assumed)
Outline: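 Anti-human IgG-coated plates captured IL17R/Fc (10 nM), then compound (5-fold dilutions from 1 μM) and biotinylated human IL-17 (20 nM stock) were added for 30 min at room temperature in PBST. Bound IL-17 detected by streptavidin-HRP/TMB at 450 nm. IC50 from 4-parameter logistic fit between no-competitor and blank controls.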

Structure (SMILES) | Kd (IL17A) [nM] | IC50 [1] [nM] | IC50 [2] [nM]
O=C1CNC(=O)[C@@H](Cc2ccc(NC(=O)[C@H](Cc3ccc(Br)s3)NC(=O)Cc3ccccc3)cc2)NC(=O)CC2(CCCC2)CC(=O)OCCCCCN1 [Compound 225] | 100 to 1000 | 1000 to 10000 | –
O=C1CNC(=O)[C@@H](Cc2ccc(NC(=O)[C@H](Cc3cscn3)NC(=O)Cc3ccccc3)cc2)NC(=O)CC2(CCCC2)CC(=O)NCCCCCN1 [Compound 232] | 100 to 1000 | 1000 to 10000 | –
O=C1CNC(=O)[C@@H](Cc2ccc(NC(=O)[C@H](Cc3cccc(Cl)c3)NC(=O)Cc3ccccc3)cc2)NC(=O)CC2(CCCC2)CC(=O)OCCCCCN1 [Compound 212] | 100 to 1000 | 100 to 1000 | –
CN1CC(=O)NCCCCCNC(=O)CC2(CCCC2)CC(=O)N[C@H](Cc2ccc(NC(=O)[C@H](Cc3ccccc3Cl)NC(=O)Cc3ccccc3)cc2)C1=O [Compound 188] | 100 to 1000 | 1000 to 10000 | –
CC(C)(C)[C@H](NC(=O)Cc1ccccc1)C(=O)Nc1ccc(C[C@H]2NC(=O)CC3(CCCC3)CC(=O)NCCCCCNC(=O)CNC2=O)cc1 [Compound 231] | 100 to 1000 | – | 100 to 1000
O=C1CNC(=O)[C@@H](Cc2ccc(NC(=O)[C@H](Cc3ccc(Cl)cc3)NC(=O)Cc3ccccc3)cc2)NC(=O)CC2(CCCC2)CC(=O)OCCCCCN1 [Compound 213] | 100 to 1000 | > 10000 | –
COC(=O)[C@@H]1CCCCNC(=O)CCCNC(=O)[C@@H](Cc2ccc(NC(=O)[C@H](Cc3ccccc3)NC(=O)Cc3ccc(C(F)(F)F)cc3)cc2)NC(=O)CC2(CCCC2)CC(=O)N1 [Compound 140] | 100 to 1000 | – | –
O=C1CCCNC(=O)[C@@H](Cc2ccc(NC(=O)[C@H](Cc3ccccc3F)NC(=O)Cc3ccccc3)cc2)NC(=O)CC2(CCCC2)CC(=O)N[C@H](C(=O)O)CCCCN1 [Compound 175] | 100 to 1000 | – | –
COC(=O)[C@@H]1CCCCNC(=O)CCCNC(=O)[C@@H](Cc2ccc(NC(=O)[C@H](Cc3cccc(F)c3)NC(=O)Cc3ccccc3)cc2)NC(=O)CC2(CCCC2)CC(=O)N1 [Compound 116] | 100 to 1000 | – | –
O=C1CC2(CCCC2)CC(=O)N[C@H](Cc2ccc(NC(=O)[C@H](Cc3ccccc3F)NC(=O)Cc3ccccc3)cc2)C(=O)NCCCC[C@@H](C(=O)O)N1 [Compound 179] | 100 to 1000 | – | < 100
COC(=O)[C@@H]1Cc2ccc(cc2)NC(=O)CCCNC(=O)[C@@H](Cc2ccc(NC(=O)[C@H](Cc3ccccc3F)NC(=O)Cc3ccccc3)cc2)NC(=O)CC2(CCCC2)CC(=O)N1 [Compound 135] | 100 to 1000 | – | –
COC(=O)[C@@H]1CCCCNC(=O)CCCNC(=O)[C@H](Cc2ccc(NC(=O)[C@H](Cc3ccccc3F)NC(=O)c3ccccc3)cc2)NC(=O)CC2(CCCC2)CC(=O)N1 [Compound 137] | 100 to 1000 | – | –
O=C1CNC(=O)[C@@H](Cc2ccc(NC(=O)[C@H](Cc3c(F)cccc3F)NC(=O)Cc3ccc(O)cc3)cc2)NC(=O)CC2(CCCC2)CC(=O)NCCCCCN1 [Compound 190] | 100 to 1000 | – | –
O=C1CCCNC(=O)[C@@H](Cc2ccc(NC(=O)[C@H](Cc3ccccc3F)NC(=O)Cc3ccccc3)cc2)NC(=O)CC2(CCCC2)CC(=O)N[C@@H](C(=O)O)CCCCN1 [Compound 176] | 100 to 1000 | – | –
COC(=O)[C@@H]1Cc2ccc(cc2)NC(=O)CCCNC(=O)[C@@H](Cc2ccc(NC(=O)[C@H](Cc3ccccc3F)NC(=O)c3ccccc3)cc2)NC(=O)CC2(CCCC2)CC(=O)N1 [Compound 134] | 100 to 1000 | – | –
COC(=O)[C@@H]1CCCCNC(=O)CCCNC(=O)[C@@H](Cc2ccc(NC(=O)[C@H](Cc3ccccc3F)NC(=O)c3ccccc3)cc2)NC(=O)CC2(CCCC2)CC(=O)N1 [Compound 128] | 100 to 1000 | – | –
O=C1CCCNC(=O)[C@@H](Cc2ccc(NC(=O)[C@H](Cc3ccc(-c4ccccc4)cc3)NC(=O)c3ccccc3)cc2)NC(=O)CC2(CCCC2)CC(=O)N[C@H](C(=O)O)CCCCN1 [Compound 178] | 100 to 1000 | – | –

Other lines, results leading:

Kd (IL17A) [nM] | IC50 [1] [nM] | IC50 [2] [nM] | Structure (SMILES)
< 100 | < 100 | – | O=C1CNC(=O)[C@@H](Cc2ccc(NC(=O)[C@H](Cc3cccs3)NC(=O)Cc3ccccc3)cc2)NC(=O)CC2(CCCC2)CC(=O)NCCCCCN1 [Compound 228]
100 to 1000 | 1000 to 10000 | – | O=C1CCCC(=O)N[C@H](Cc2ccc(NC(=O)[C@H](Cc3ccccc3Cl)NC(=O)Cc3ccccc3)cc2)C(=O)NCC(=O)NCCCCCN1 [Compound 221]
100 to 1000 | 100 to 1000 | – | O=C1CNC(=O)[C@@H](Cc2ccc(NC(=O)[C@H](Cc3ccccc3Cl)NC(=O)c3cnccn3)cc2)NC(=O)CC2(CCCC2)CC(=O)NCCCCCN1 [Compound 200]
< 100 | < 100 | – | O=C1CNC(=O)[C@@H](Cc2ccc(NC(=O)[C@H](Cc3ccccc3Cl)NC(=O)c3ccccc3F)cc2)NC(=O)CC2(CCCC2)CC(=O)NCCCCCN1 [Compound 203]
100 to 1000 | 1000 to 10000 | – | O=C1CNC(=O)[C@@H](Cc2ccc(NC(=O)[C@H](Cc3ccc(Cl)c(Cl)c3)NC(=O)Cc3ccccc3)cc2)NC(=O)CC2(CCCC2)CC(=O)OCCCCCN1 [Compound 224]
< 100 | < 100 | – | O=C1CNC(=O)[C@@H](Cc2ccc(NC(=O)[C@H](Cc3ccccc3Cl)NC(=O)c3cccc(O)c3)cc2)NC(=O)CC2(CCCC2)CC(=O)NCCCCCN1 [Compound 214]
< 100 | < 100 | – | O=C1CCNC(=O)[C@@H](Cc2ccc(NC(=O)[C@H](Cc3ccccc3Cl)NC(=O)Cc3ccccc3)cc2)NC(=O)CC2(CCCC2)CC(=O)NCCCCN1 [Compound 164]
< 100 | < 100 | – | O=C1CCCNC(=O)[C@@H](Cc2ccc(NC(=O)[C@H](Cc3ccccc3Cl)NC(=O)Cc3ccccc3)cc2)NC(=O)CC2(CCCC2)CC(=O)NCCCN1 [Compound 158]
< 100 | 100 to 1000 | – | CN1CC(=O)NCCCCCNC(=O)CC2(CCCC2)CC(=O)N[C@H](Cc2ccc(NC(=O)[C@H](Cc3ccccc3Cl)NC(=O)Cc3ccc(O)cc3)cc2)C1=O [Compound 193]
< 100 | 100 to 1000 | – | O=C1CNC(=O)[C@@H](Cc2ccc(NC(=O)[C@H](Cc3ccccc3Cl)NC(=O)c3ccccc3Cl)cc2)NC(=O)CC2(CCCC2)CC(=O)NCCCCCN1 [Compound 204]
< 100 | < 100 | – | CC1(C)CC(=O)NCCCCCNC(=O)CNC(=O)[C@@H](Cc2ccc(NC(=O)[C@H](Cc3ccccc3Cl)NC(=O)Cc3ccccc3)cc2)NC(=O)C1 [Compound 222]
< 100 | 100 to 1000 | – | O=C1CNC(=O)[C@@H](Cc2ccc(NC(=O)[C@H](Cc3csc4ccccc34)NC(=O)Cc3ccccc3)cc2)NC(=O)CC2(CCCC2)CC(=O)NCCCCCN1 [Compound 233]
< 100 | – | – | COC(=O)[C@H]1CCCCNC(=O)CNC(=O)[C@@H](Cc2ccc(NC(=O)[C@H](Cc3ccccc3F)NC(=O)Cc3ccccc3)cc2)NC(=O)CC2(CCCC2)CC(=O)N1 [Compound 149]
< 100 | – | – | O=C1CNC(=O)[C@@H](Cc2ccc(NC(=O)[C@H](Cc3ccccc3Cl)NC(=O)Cc3ccccc3)cc2)NC(=O)CC2(CCCC2)CC(=O)NCCCCN1 [Compound 162]
< 100 | – | – | O=C1CNC(=O)[C@@H](Cc2ccc(NC(=O)[C@H](Cc3ccc(O)cc3)NC(=O)Cc3ccc(O)cc3)cc2)NC(=O)CC2(CCCC2)CC(=O)NCCCCCN1 [Compound 189]
< 100 | – | – | O=C1CNC(=O)[C@@H](Cc2ccc(NC(=O)[C@H](Cc3ccccc3Cl)NC(=O)c3ccc(O)cc3)cc2)NC(=O)CC2(CCCC2)CC(=O)NCCCCCN1 [Compound 215]
